# Patent US8110547B2, “Compositions for buccal delivery of parathyroid hormone” (Emisphere Technologies, Inc., priority 2005, dated 2012)
# Like-named read-outs stand apart in the source and are kept apart here.
# Tests used:
# [1] = Serum PTH pharmacokinetics after oral and buccal administration to rats; assay type: in vivo, Male Sprague Dawley rats; settings: rat, 0.2 mg/kg PTH with 200 mg/kg monosodium 4-MOAC; for AUC(0-inf) / AUC(0-t) / Cmax / Tmax: male, Sprague Dawley, serum, 0.2 mg/kg
# Protocol: A stock solution of human recombinant PTH (1-34) was prepared by dissolving hPTH (1-34) (Eli Lilly, Indianapolis, Ind.) in deionized water to a concentration of 4 mg/ml. A stock solution of delivery agent was prepared by dissolving the delivery agent in deionized water. The pH of the resulting delivery agent solution was adjusted to between 7.5 and 8.5. A liquid buccal dosage form was prepared by mixing the PTH stock solution with the delivery agent stock solution immediately prior to dosing. For the present example, four dosage forms were prepared as described below.
# The dosage forms were administered to Male Sprague Dawley rats, ranging in weight from about 250 g to about […]. Each rat was anesthesized with 2% isofiurane in pure oxygen during the whole experiment. The femoral artery was cannulated for blood sampling. The esophagus was ligated to prevent wallowing of the dosing solution. The trachea was intubated and the rat was provided with a constant flow of 2% isofiurane in oxygen.
# The liquid dosage form was administered by inserting a T-shaped dosing tool into the mouth of the rat. The center of the dosing tool was placed under the tongue and the liquid dosage form (approximately […] body weight) was administered by syringe through the dosing tool, such that the dosage was distributed evenly throughout the buccal area. Following administration, the mouth was glued shut. Blood samples were drawn at predetermined periods from the femoral artery and assayed for PTH. The liquid dosage solution was allowed to remain in the buccal area for 90 minutes (e.g., the dosing duration). After 90 minutes the liquid dosage solution was removed from the buccal area by syringe.
# The concentration of PTH was determined using a PTH (1-34) immunradiometric assay kit (Immutopics, San Clemente, Calif.). Samples were prepared by storage for 20 minutes between 2° C. and 8° C., followed by centrifugation at 10,000 G for 10 minutes to obtain serum. The serum concentration of PTH was than determined using a PTH (1-34) immunradiometric assay kit.
# A liquid dosage form was prepared as described above wherein the dosage amount of monosodium 4-MOAC was 200 mg/kg and the dosage amount of PTH was 0.2 mg/kg. The dosage form was administered buccally as described above. Oral administration was carried out by anesthetizing the rat with a mixture of ketamine (44 mg/kg) and thorazine (1.5 mg/kg), followed by administration of the oral dosage by a gavaging trocar. The dosing duration for buccal administration was 5 and 60 minutes respectively. Blood samples were drawn from the rat as described above and the serum concentration of PTH was determined as described previously.
# [2] = Pharmacokinetics after buccal, oral and subcutaneous administration of PTH to dogs; assay type: in vivo; settings: dog; for AUC(0-t) / Cmax / Tmax / F rel: in vivo; for F rel: bioavailability relative to subcutaneous administration, read-out: AUC0−>t BA (%)
# Protocol: The animal was moderately sedated using 0.4-0.8 mg/kg midazolam (IM) and 0.03-0.04 mg/kg medetomidine IV or IM in order to minimize the risk of the animal swallowing the test material. The level of sedation was continuously monitored and respiratory rate and general activity level was noted. Once adequately sedated, the dog was moved to a flat surface and an intravenous catheter was placed in the cephalic vein. For dose application, the dog was placed on its side with its head and jaw angled to maximally hold the test material in the mouth.
# For an aqueous dosing solution, a syringe filled with the dosing solution (up to 1.5 ml) was placed sublingually and infused slowly up to 0.75 ml in an equal amount at the right and left space under the tongue of the dog. For sublingual tablet, the tablets were placed under the tongue and up to 1.5 ml of saline was administered to facilitate the sublingual dissolution. On one hour post-administration, any remaining formulation was removed by syringe aspiration and the area was rinsed once with saline solution and the saline solution that was then removed by a syringe aspiration.
# Once the animal recovered from the sedatives, restraint-acclimated animals was restrained using a sling for the duration of the experiment. Blood samples were collected at specific time-points, i.e., 0, 0.25, 0.5, 1, 1.5, 2, 2.5 and up to 4 hours.
# For comparison of the dosing route with intraoral delivery, an oral tablet dosing study was followed. The equivalent dose of drug and carrier was prepared to be the oral formulation of tablets that were gavaged, and 1 ml of water was administered into the gavaging tubing.
# The final two columns in Table 2 show the relative bioavailability to subcutaneous administration by buccal and oral administrations of PTH to dog, and the respective coefficient of variations.
# [3] = buccal 5 min dosing duration versus oral
# [4] = buccal 60 min dosing duration versus oral
# [5] = buccal (sublingual), formulation removed one hour post-administration
smiles,measurement,setting,value
"CC[C@H](C)[C@H](NC(=O)[C@H](CCC(=O)O)NC(=O)[C@H](CO)NC(=O)[C@@H](NC(=O)[C@@H](N)CO)C(C)C)C(=O)N[C@@H](CCC(N)=O)C(=O)N[C@@H](CC(C)C)C(=O)N[C@@H](CCSC)C(=O)N[C@@H](Cc1cnc[nH]1)C(=O)N[C@@H](CC(N)=O)C(=O)N[C@@H](CC(C)C)C(=O)NCC(=O)N[C@@H](CCCCN)C(=O)N[C@@H](Cc1cnc[nH]1)C(=O)N[C@@H](CC(C)C)C(=O)N[C@@H](CC(N)=O)C(=O)N[C@@H](CO)C(=O)N[C@@H](CCSC)C(=O)N[C@@H](CCC(=O)O)C(=O)N[C@@H](CCCN=C(N)N)C(=O)N[C@H](C(=O)N[C@@H](CCC(=O)O)C(=O)N[C@@H](Cc1c[nH]c2ccccc12)C(=O)N[C@@H](CC(C)C)C(=O)N[C@@H](CCCN=C(N)N)C(=O)N[C@@H](CCCCN)C(=O)N[C@@H](CCCCN)C(=O)N[C@@H](CC(C)C)C(=O)N[C@@H](CCC(N)=O)C(=O)N[C@@H](CC(=O)O)C(=O)N[C@H](C(=O)N[C@@H](Cc1cnc[nH]1)C(=O)N[C@@H](CC(N)=O)C(=O)N[C@@H](Cc1ccccc1)C(=O)O)C(C)C)C(C)C [PTH, human recombinant PTH (1-34)]",AUC(0-inf),"[1]; buccal, 5 min dosing duration",2.8 ng·h/mL
same,AUC(0-t),"[1]; buccal, 5 min dosing duration",0.975 ng·h/mL
same,Cmax,"[1]; buccal, 5 min dosing duration",1.7 ng/mL
same,Tmax,"[1]; buccal, 5 min dosing duration",5 min
same,AUC(0-inf),"[1]; buccal, 60 min dosing duration",3.44 ng·h/mL
same,AUC(0-t),"[1]; buccal, 60 min dosing duration",1.29 ng·h/mL
same,Cmax,"[1]; buccal, 60 min dosing duration",1.82 ng/mL
same,Tmax,"[1]; buccal, 60 min dosing duration",15 min
same,AUC(0-inf),"[1]; po, oral gavage",2.62 ng·h/mL
same,AUC(0-t),"[1]; po, oral gavage",10.4 ng·h/mL
same,Cmax,"[1]; po, oral gavage",1.43 ng/mL
same,Tmax,"[1]; po, oral gavage",15 min
same,Buccal:Oral AUC0−>t Ratio,[1]; [3],0.94
same,Buccal:Oral AUC0−>∞ Ratio,[1]; [3],1.1
same,Buccal:Oral AUC0−>t Ratio,[1]; [4],1.2
same,Buccal:Oral AUC0−>∞ Ratio,[1]; [4],1.3
same,AUC0−>t BA (%),[2]; subcutaneous (reference route),100%
same,AUC(0-t),"[2]; sc, subcutaneous",8.47 ng·h/mL
same,Cmax,"[2]; sc, subcutaneous",6.39 ± 1.97 ng/mL
same,Tmax,"[2]; sc, subcutaneous",26 min
same,AUC(0-t),[2]; [5],2.82 ng·h/mL
same,Cmax,[2]; [5],3.35 ± 2.65 ng/mL
same,Tmax,[2]; [5],62 min
same,F rel,[2]; buccal,3.3%
same,AUC(0-t),[2]; oral tablets gavaged,0.41 ng·h/mL
same,Cmax,[2]; oral tablets gavaged,0.632 ± 0.568 ng/mL
same,Tmax,[2]; oral tablets gavaged,23 min
same,F rel,[2]; oral,4.8%
